Measured values as given in the NIST ThermoML archive (doi:10.1016/j.jct.2008.01.007).

Test: xn = mol fraction of the nth substance listed
Details: 101 kPa, Liquid

OCCN1CCOCC1 [4-morpholineethanol] + O
Details	mass density, 293.15 K [kg/m3]	mass density, 303.15 K [kg/m3]	mass density, 313.15 K [kg/m3]	mass density, 323.15 K [kg/m3]	mass density, 333.15 K [kg/m3]	viscosity, 293.15 K [mPa·s]	viscosity, 303.15 K [mPa·s]	viscosity, 313.15 K [mPa·s]	viscosity, 323.15 K [mPa·s]	viscosity, 333.15 K [mPa·s]
x1 = 0.0628	1041.44	1033.11	1024.47	1017.66	1012.27	14.46	9.721	8.148	6.767	4.413
x1 = 0.1126	1061.42	1052.36	1043.65	1035.57	1029.49	22.98	18.02	13.55	11.37	9.233
x1 = 0.1985	1078.87	1069.04	1060.34	1052.34	1044.12	33.29	27.47	22.61	17.84	13.91
x1 = 0.2466	1083.81	1073.73	1065.05	1057.12	1048.47	–	–	–	–	–
x1 = 0.2887	1086.11	1075.86	1067.22	1059.03	1050.37	39.28	33.52	28.26	23.09	17.82
x1 = 0.3459	1087.54	1077.13	1068.55	1060.61	1051.89	41.75	35.73	30.86	25.45	19.93
x1 = 0.4127	1087.67	1077.14	1068.64	1061.07	1052.63	43.23	37.33	31.64	25.94	20.12
x1 = 0.4852	1086.69	1076.07	1067.65	1060.28	1052.39	44.02	37.36	31.41	25.4	19.72
x1 = 0.5438	1085.22	1074.56	1066.2	1058.66	1051.46	–	–	–	–	–
x1 = 0.5842	1084.37	1073.69	1065.37	1057.87	1050.71	43.33	36.22	29.62	23.17	18.58
x1 = 0.6438	1082.81	1072.11	1063.85	1056.41	1049.64	42.3	34.92	28.05	21.34	16.15
x1 = 0.6878	1081.6	1070.89	1062.67	1055.27	1048.84	–	–	–	–	–
x1 = 0.7439	1080.31	1069.59	1061.41	1054.22	1047.82	39.78	32.9	25.58	19.58	14.06
x1 = 0.8238	1078.68	1068.19	1060.06	1053.44	1047.09	36.28	30.25	23.38	18.01	12.67
x1 = 0.8846	1077.69	1067.27	1059.5	1052.95	1046.7	33.61	27.11	22.16	16.98	11.26
x1 = 0.9486	1077.17	1066.94	1059.41	1052.79	1046.54	–	–	–	–	–
x1 = 1	1076.58	1066.51	1059.19	1052.64	1046.43	26.58	21.99	17.32	12.86	8.284
